Measurements as given in US20260256822A1, “ENTRY-MODULATING AGENTS AND USES THEREFOR” (priority 2022, published 2026).
Where “and” joins values, the source holds several entries; their conditions need not be identical. Identical values can stand only once. Counter-ions that a name gives are not always drawn. Like-named read-outs stand apart in the source and are kept apart here.

Tests used:
PfCyRPA [1] = molecular target: T1, PfCyRPA (Plasmodium falciparum, UniProt Q8IFM8); assay type: binding; details: compound injected first, then 2-6SLN; both at 1 μM
Target sequence in this assay (Q8IFM8 29-362): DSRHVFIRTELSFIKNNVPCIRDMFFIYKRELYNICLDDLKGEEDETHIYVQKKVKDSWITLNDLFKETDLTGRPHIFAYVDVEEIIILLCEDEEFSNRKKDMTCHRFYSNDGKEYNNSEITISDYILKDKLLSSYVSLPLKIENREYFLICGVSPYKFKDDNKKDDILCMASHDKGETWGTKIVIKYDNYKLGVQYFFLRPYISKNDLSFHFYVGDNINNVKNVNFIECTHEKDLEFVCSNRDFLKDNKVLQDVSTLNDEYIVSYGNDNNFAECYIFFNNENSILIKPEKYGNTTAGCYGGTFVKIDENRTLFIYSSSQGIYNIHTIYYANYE

PfCyRPA [2] = molecular target: T1, PfCyRPA; experiment: biochemical
Target sequence in this assay (Q8IFM8 29-362): as above

P. falciparum 3D7 clone = experiment: In vitro blood stage parasite growth inhibition assay, [3H]-hypoxanthine incorporation, human red blood cells; assay type: cell-based, Plasmodium falciparum
[3] = molecular target: T2, New Delhi metallo-beta-lactamase 2 (NDM2) (Klebsiella pneumoniae, UniProt C7C422, P28A); experiment: biochemical
PfCyRPA [4] = molecular target: T1, PfCyRPA; details: for affinity of interaction with PfCyRPA: SPR
Target sequence in this assay (Q8IFM8 29-362): as above

[5] = molecular target: T2, New Delhi metallo-beta-lactamase 2 (NDM2); details: read-out: NDM2 KD; Table 9
PvCyRPA = PvCyRPA (Plasmodium vivax, UniProt A5K678, A187P/D259E/E126K/E159D/E86Q/G127E/G69A/H95N/K131E/K185E/K93E/Q142K/R122K/T90K); assay type: binding; details: Table 12, PvCyRPA
PfCyRPA [6] = molecular target: T1, PfCyRPA; details: SPR
Target sequence in this assay (Q8IFM8 26-362): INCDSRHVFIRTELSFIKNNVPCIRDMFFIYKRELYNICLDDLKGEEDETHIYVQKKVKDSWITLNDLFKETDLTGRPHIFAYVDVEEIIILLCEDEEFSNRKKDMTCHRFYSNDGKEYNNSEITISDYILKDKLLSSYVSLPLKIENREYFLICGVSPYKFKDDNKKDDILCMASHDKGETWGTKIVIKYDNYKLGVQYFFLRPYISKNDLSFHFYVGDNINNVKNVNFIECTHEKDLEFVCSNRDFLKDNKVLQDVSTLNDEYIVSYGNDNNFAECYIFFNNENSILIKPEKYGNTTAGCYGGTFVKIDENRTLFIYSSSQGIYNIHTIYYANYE

[7] = mice, 7 days post infection
Method: To determine the level of ZnPT in serum a methodology using two ZnPT binding proteins was developed.
(§1) Standard curves were run across the following concentrations: • ZnPT—0.61 nM to 10 μM • PT—61 nM to 1 mM • Zinc—0.61 μM to 10 mM

[8] = for Serum concentration of zinc pyrithione: human
Method: Participants were instructed to completely wet hair, measure out 20 mL of anti-dandruff shampoo using a measuring cup provided, pour shampoo onto the scalp and massage shampoo into the scalp, leave shampoo on for 5-10 minutes using the timer provided then completely rinse off shampoo. Blood and urine samples were also collected on day 3 (two days of shampoo use), day 4 (three days of shampoo use), day 5 (day after shampoo use stops) and day 10 (five days after shampoo use has stopped). Serum was separated from blood collected in SST II Advance serum separation tubes (BD) according to the manufacturer's instructions. Sera and urine were batched and stored at −80° C. within 4 hours of collection.
as §1
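Wherever Serum concentration of zinc pyrithione is given: human volunteers used 1% ZPT shampoo twice daily for three days from day 2, serum sampled on days 1 (pre-use), 3, 4, 5 and 10.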
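Wherever day of the highest serum concentration of ZnPT is given: human volunteers used 1% ZPT shampoo twice daily for three days from day 2, serum sampled on days 1 (pre-use), 3, 4, 5 and 10.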

T2 sequence (C7C422 29-270 P28A (numbered from the first residue shown)): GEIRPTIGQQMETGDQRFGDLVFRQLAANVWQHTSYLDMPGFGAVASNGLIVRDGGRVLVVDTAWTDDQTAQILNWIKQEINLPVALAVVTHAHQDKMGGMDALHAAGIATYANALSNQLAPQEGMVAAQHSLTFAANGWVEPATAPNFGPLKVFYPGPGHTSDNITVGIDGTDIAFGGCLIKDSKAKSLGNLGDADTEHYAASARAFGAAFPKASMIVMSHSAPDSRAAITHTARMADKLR

In the case of `CC(O)C(=O)O.CCOc1ccc2nc3cc(N)ccc3c(N)c2c1` (racemic) [RIVANOL, 6,9-Diamino-2-ethoxyacridine-DL-lactate monohydrate], the “Blocking of 2-6SLN binding” value (PfCyRPA [1]) is reported as 87.6% ± 9.7, the Kd (PfCyRPA [2]) is reported as 2.46 ± 0.41 nM and the EC50 (P. falciparum 3D7 clone; Plasmodium falciparum, 3D7, Erythrocyte, Table 8, human RBC, P. falciparum 3D7, read-out: EC50 in RBC infection) is reported as 0.019 µg/mL and 55.3 nM. For the same compound, the “concentration that completely inhibits P. falciparum infection of human RBCs” value (P. falciparum 3D7 clone; human RBC, monohydrate) was 100 ng/mL and 291.1 nM.
For `On1ccccc1=S` [1-Hydroxy-2(1H)-pyridinethione], the Kd [3] was 894000 nM and the Kd (PfCyRPA [2]) was 169000 nM.
With `O=C1CC2(CCCC2)CC(=O)N1CCCCN1CCN(c2ncccn2)CC1` [Buspirone hydrochloride] the “Blocking of 2-6SLN binding” value (PfCyRPA [1]) was 77.4% ± 8.2 and the Kd (PfCyRPA [2]) was 33.6 ± 4.31 nM.
In the case of `CO[C@H]1C[C@H](O[C@H]2[C@H](C)O[C@@H](O[C@@H]3/C(C)=C/C[C@@H]4C[C@@H](C[C@]5(C=C[C@H](C)[C@@H](C6CCCCC6)O5)O4)OC(=O)[C@@H]4C=C(C)[C@@H](O)[C@H]5OC/C(=C\C=C\[C@@H]3C)[C@]54O)C[C@@H]2OC)O[C@@H](C)[C@@H]1O` [Doramectin], the Kd (PfCyRPA [4]) is reported as 7040 ± 2030 nM.
For `CCC(C)[C@H]1O[C@]2(CC[C@@H]1C)C[C@@H]1C[C@@H](C/C=C(\C)[C@@H](O[C@H]3C[C@H](OC)[C@@H](O[C@H]4C[C@@H](OC)[C@H](O)[C@@H](C)O4)[C@H](C)O3)[C@@H](C)/C=C/C=C3\CO[C@@H]4[C@H](O)C(C)=C[C@@H](C(=O)O1)[C@]34O)O2` (some centres unmarked) [Ivermectin], the “Blocking of 2-6SLN binding” value (PfCyRPA [1]) was 67.3% ± 4.9, the Kd (PfCyRPA [2]) was 93.2 ± 14 nM and the “affinity of interaction with PfCyRPA” value (PfCyRPA [4]) was “high affinity interaction”. For the same compound, the EC50 (P. falciparum 3D7 clone; Plasmodium falciparum, 3D7, Erythrocyte, human RBC, Example 6) was 0.534 µg/mL, the “concentration that completely inhibits P. falciparum infection of human RBCs” value (P. falciparum 3D7 clone; human RBC) was 2000 ng/mL and 2.29 μM and the EC50 (P. falciparum 3D7 clone; read-out: EC50 in RBC infection, Table 7, human RBC, P. falciparum 3D7) was 610 nM.
With `CO/N=C1\C[C@]2(C[C@@H]3C[C@@H](C/C=C(\C)C[C@@H](C)/C=C/C=C4\CO[C@@H]5[C@H](O)C(C)=C[C@@H](C(=O)O3)[C@]45O)O2)O[C@H](/C(C)=C/C(C)C)[C@H]1C` [Moxidectin] the Kd (PfCyRPA [2]) was 13400 ± 521 nM.
Work on `COc1ccc(CCC(=O)c2c(O)cc(O[C@@H]3O[C@H](CO)[C@@H](O)[C@H](O)[C@H]3O[C@@H]3O[C@@H](C)[C@H](O)[C@@H](O)[C@H]3O)cc2O)cc1O` [Neohesperidin dihydrochalcone] yielded a Kd (PfCyRPA [2]) of 24.6 ± 1.45 nM.
Compound `CCC(C)(C)C(=O)O[C@H]1C[C@@H](C)C=C2C=C[C@H](C)[C@H](CC[C@@H]3C[C@@H](O)CC(=O)O3)[C@H]21` [Simvastatin] has a Kd (PfCyRPA [2]) of 31.4 ± 2.24 nM.
With `[O-][n+]1ccccc1S` [Sodium Pyrithione] the Kd [5] was 789000 nM, the Kd (PfCyRPA [4]; Table 3, PfCyRPA) was 122000 nM and the Kd (PfCyRPA [4]; read-out: CyRPA KD, Table 9) was 122000 nM.
`O=S(=O)([O-])[O-].[Zn+2]` [Zinc, Zinc sulfate] gave a Kd [5] of 317000 nM, a Kd (PfCyRPA [4]; Table 3, PfCyRPA) of 546000 nM and a Kd (PfCyRPA [4]; read-out: CyRPA KD, Table 9) of 546000 nM.
In the case of Abamectin, the “Blocking of 2-6SLN binding” value (PfCyRPA [1]) is reported as 91.4% ± 6.8, the Kd (PvCyRPA) is reported as 1140 ± 230 nM and the Kd (PfCyRPA [4]) is reported as 19.1 ± 1.17 nM. For the same compound, the “EC50 in RBC infection” value (P. falciparum 3D7 clone; Table 7, human RBC, P. falciparum 3D7) was 0.888 µg/mL, the EC50 (P. falciparum 3D7 clone; Table 7, human RBC, P. falciparum 3D7, read-out: EC50 in RBC infection) was 1000 nM and the “concentration that completely inhibits P. falciparum infection of human RBCs” value (P. falciparum 3D7 clone; human RBC) was 4000 ng/mL and 4.50 μM.
Work on Emamectin yielded a Kd (PfCyRPA [4]) of over 100000 nM.
Compound Milbemycin has a Kd (PfCyRPA [4]) of 967 ± 57 nM.
In the case of “Neu5Ac-α-(2-6)-Gal-β-(1-4)-GlcNAc [α2-6-SLN-Ac]”, the “glycan ligand affinity for PfCyRPA” value (PfCyRPA [6]) is reported as “highest affinity ligand”.
In the case of Zinc Pyrithione, the “Serum concentration at the point of testing” value [7] is reported as under 163 ng/mL, the “Blocking of 2-6SLN binding” value (PfCyRPA [1]) is reported as 98.2% ± 3.4 and the Kd [5] is reported as 38.5 nM. For the same compound, the “Serum concentration of zinc pyrithione” value ([8]; Serum 1, Day 1 (before shampoo use)) was 0.03 μM ±, the “Serum concentration of zinc pyrithione” value ([8]; Serum 1, Day 3, topical 1% ZPT shampoo) was 0.04 μM ± and the “Serum concentration of zinc pyrithione” value ([8]; Serum 1, Day 4, topical 1% ZPT shampoo) was 0.66 μM ±. The “Serum concentration of zinc pyrithione” value ([8]; Serum 1, Day 5, topical 1% ZPT shampoo) was 2.7 μM ±, the “Serum concentration of zinc pyrithione” value ([8]; Serum 1, Day 10, topical 1% ZPT shampoo) was −0.07 μM ± and the “Serum concentration of zinc pyrithione” value ([8]; Serum 2, Day 1 (before shampoo use)) was 0.02 μM ±. For the same compound, the “Serum concentration of zinc pyrithione” value ([8]; Serum 2, Day 3, topical 1% ZPT shampoo) was 0.88 μM ±, the “Serum concentration of zinc pyrithione” value ([8]; Serum 2, Day 4, topical 1% ZPT shampoo) was 1.8 μM ± and the “Serum concentration of zinc pyrithione” value ([8]; Serum 2, Day 5, topical 1% ZPT shampoo) was 4.3 μM ±. For the same compound, the “Serum concentration of zinc pyrithione” value ([8]; Serum 2, Day 10, topical 1% ZPT shampoo) was 0.33 μM ±, the “Serum concentration of zinc pyrithione” value ([8]; Serum 3, Day 1 (before shampoo use)) was 0.08 μM ± and the “Serum concentration of zinc pyrithione” value ([8]; Serum 3, Day 3, topical 1% ZPT shampoo) was 0.24 μM ±. The “Serum concentration of zinc pyrithione” value ([8]; Serum 3, Day 4, topical 1% ZPT shampoo) was 0.84 μM ±, the “Serum concentration of zinc pyrithione” value ([8]; Serum 3, Day 5, topical 1% ZPT shampoo) was 1.6 μM ± and the “Serum concentration of zinc pyrithione” value ([8]; Serum 3, Day 10, topical 1% ZPT shampoo) was 1.0 μM ±. The “Serum concentration of zinc pyrithione” value ([8]; Serum 4, Day 1 (before shampoo use)) was 0.03 μM ±, the “Serum concentration of zinc pyrithione” value ([8]; Serum 4, Day 3, topical 1% ZPT shampoo) was 0.81 μM ± and the “Serum concentration of zinc pyrithione” value ([8]; Serum 4, Day 4, topical 1% ZPT shampoo) was 1.0 μM ±. The “Serum concentration of zinc pyrithione” value ([8]; Serum 4, Day 5, topical 1% ZPT shampoo) was 1.5 μM ±, the “Serum concentration of zinc pyrithione” value ([8]; Serum 4, Day 10, topical 1% ZPT shampoo) was 1.2 μM ± and the “Serum concentration of zinc pyrithione” value ([8]; Serum 5, Day 1 (before shampoo use)) was 0.01 μM ±. The “Serum concentration of zinc pyrithione” value ([8]; Serum 5, Day 3, topical 1% ZPT shampoo) was 0.02 μM ±, the “Serum concentration of zinc pyrithione” value ([8]; Serum 5, Day 4, topical 1% ZPT shampoo) was 0.10 μM ± and the “Serum concentration of zinc pyrithione” value ([8]; Serum 5, Day 5, topical 1% ZPT shampoo) was 0.22 μM ±. The “Serum concentration of zinc pyrithione” value ([8]; Serum 5, Day 10, topical 1% ZPT shampoo) was 0.02 μM ±, the “Serum concentration of zinc pyrithione” value ([8]; Serum 6, Day 1 (before shampoo use)) was 0.001 μM ± and the “Serum concentration of zinc pyrithione” value ([8]; Serum 6, Day 3, topical 1% ZPT shampoo) was 0.10 μM ±. The “Serum concentration of zinc pyrithione” value ([8]; Serum 6, Day 4, topical 1% ZPT shampoo) was 0.21 μM ±, the “Serum concentration of zinc pyrithione” value ([8]; Serum 6, Day 5, topical 1% ZPT shampoo) was 0.38 μM ± and the “Serum concentration of zinc pyrithione” value ([8]; Serum 6, Day 10, topical 1% ZPT shampoo) was 0.007 μM ±. For the same compound, the “Serum concentration of zinc pyrithione” value ([8]; Serum 7, Day 1 (before shampoo use)) was 0.01 μM ±, the “Serum concentration of zinc pyrithione” value ([8]; Serum 7, Day 3, topical 1% ZPT shampoo) was 0.84 μM ± and the “Serum concentration of zinc pyrithione” value ([8]; Serum 7, Day 4, topical 1% ZPT shampoo) was 0.96 μM ±. For the same compound, the “Serum concentration of zinc pyrithione” value ([8]; Serum 7, Day 5, topical 1% ZPT shampoo) was 1.5 μM ±, the “Serum concentration of zinc pyrithione” value ([8]; Serum 7, Day 10, topical 1% ZPT shampoo) was 1.2 μM ± and the “Serum concentration of zinc pyrithione” value ([8]; Serum 8, Day 1 (before shampoo use)) was 0.02 μM ±. The “Serum concentration of zinc pyrithione” value ([8]; Serum 8, Day 3, topical 1% ZPT shampoo) was 0.02 μM ±, the “Serum concentration of zinc pyrithione” value ([8]; Serum 8, Day 4, topical 1% ZPT shampoo) was 0.09 μM ± and the “Serum concentration of zinc pyrithione” value ([8]; Serum 8, Day 5, topical 1% ZPT shampoo) was 0.26 μM ±. For the same compound, the “Serum concentration of zinc pyrithione” value ([8]; Serum 8, Day 10, topical 1% ZPT shampoo) was 0.11 μM ±, the “Serum concentration of zinc pyrithione” value ([8]; Serum 9, Day 1 (before shampoo use)) was 0.04 μM ± and the “Serum concentration of zinc pyrithione” value ([8]; Serum 9, Day 3, topical 1% ZPT shampoo) was 0.22 μM ±. The “Serum concentration of zinc pyrithione” value ([8]; Serum 9, Day 4, topical 1% ZPT shampoo) was 0.30 μM ±, the “Serum concentration of zinc pyrithione” value ([8]; Serum 9, Day 5, topical 1% ZPT shampoo) was 0.49 μM ± and the “Serum concentration of zinc pyrithione” value ([8]; Serum 9, Day 10, topical 1% ZPT shampoo) was 0.14 μM ±. For the same compound, the “Serum concentration of zinc pyrithione” value ([8]; Serum 10, Day 1 (before shampoo use)) was 0.004 μM ±, the “Serum concentration of zinc pyrithione” value ([8]; Serum 10, Day 3, topical 1% ZPT shampoo) was 0.15 μM ± and the “Serum concentration of zinc pyrithione” value ([8]; Serum 10, Day 4, topical 1% ZPT shampoo) was 1.1 μM ±. The “Serum concentration of zinc pyrithione” value ([8]; Serum 10, Day 5, topical 1% ZPT shampoo) was 1.5 μM ±, the “Serum concentration of zinc pyrithione” value ([8]; Serum 10, Day 10, topical 1% ZPT shampoo) was 0.98 μM ± and the “day of the highest serum concentration of ZnPT” value ([8]; day after three consecutive days of topical treatment) was 5 days. For the same compound, the Kd (PvCyRPA) was 50.8 ± 2.91 nM, the Kd (PfCyRPA [4]) was 0.833 ± 0.192 nM and the “affinity of interaction with PfCyRPA” value (PfCyRPA [4]) was “high affinity interaction”. The Kd (PfCyRPA [4]; Table 3, PfCyRPA) was 0.833 nM, the Kd (PfCyRPA [4]; read-out: CyRPA KD, Table 9) was 0.833 nM and the “EC50 in RBC infection” value (P. falciparum 3D7 clone; Table 6, human RBC, P. falciparum 3D7, listed as ZnPT) was 0.163 µg/mL. For the same compound, the EC50 (P. falciparum 3D7 clone; Table 6, human RBC, P. falciparum 3D7, read-out: EC50 in RBC infection) was 513 nM and the “concentration that completely inhibits P. falciparum infection of human RBCs” value (P. falciparum 3D7 clone; human RBC, listed as ZnPT) was 500 ng/mL and 1.57 μM.
